Like-named read-outs stand apart in the source and are kept apart here.
Experiments:
[1] = molecular target: T1, α-glucosidase from Saccharomyces cerevisiae (EC 3.2.1.20) (Saccharomyces cerevisiae, UniProt P53341); assay: biochemical; conditions: for IC50 / inhibition at 100 µM / Inhibition rate at a concentration of 100 μM (%): p-NPG substrate; for IC50: pH 6.8, 37°C; for inhibition at 100 µM: read-out: Inhibition rate at a concentration of 100 μM (%), 100 μM compound; for Inhibition rate at a concentration of 100 μM (%): 100 μM compound; for Inhibitory activity, folds higher than acarbose: IC50 compared with acarbose
T1 construct: purchased Sigma-Aldrich
T1 sequence (P53341 whole entry): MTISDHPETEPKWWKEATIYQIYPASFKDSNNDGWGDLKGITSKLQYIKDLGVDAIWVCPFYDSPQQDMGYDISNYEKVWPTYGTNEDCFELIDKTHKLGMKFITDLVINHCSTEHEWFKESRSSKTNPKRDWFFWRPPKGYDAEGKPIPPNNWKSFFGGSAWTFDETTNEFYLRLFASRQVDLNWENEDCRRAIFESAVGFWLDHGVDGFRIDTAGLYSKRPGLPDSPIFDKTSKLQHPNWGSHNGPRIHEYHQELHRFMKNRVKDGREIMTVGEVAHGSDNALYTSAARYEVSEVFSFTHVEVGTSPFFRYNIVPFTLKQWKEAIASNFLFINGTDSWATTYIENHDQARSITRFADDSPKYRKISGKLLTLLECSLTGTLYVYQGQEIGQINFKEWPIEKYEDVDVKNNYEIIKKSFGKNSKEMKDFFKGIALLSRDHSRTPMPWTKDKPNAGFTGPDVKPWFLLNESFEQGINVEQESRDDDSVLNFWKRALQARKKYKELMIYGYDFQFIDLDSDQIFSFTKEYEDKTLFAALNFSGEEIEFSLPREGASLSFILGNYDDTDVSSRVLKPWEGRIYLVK
Procedure: Then, the inhibitory activity of compounds (3a ∼ 3v) on α-glucosidase from S. cerevisiae was investigated using p-NPG as the substrate. First, the inhibitory activities of compounds (3a ∼ 3v) were screened at a concentration of 100 μM.
The α-glucosidase inhibition of synthetic compounds was performed as previously reported methods with minor modification ([Deng et al., 2022]) which is as follows: briefly, 130 μl of phosphate buffer (10 mM, pH 6.8), 10 μl of α-glucosidase (1 U/ml), and 10 μl of test compound solution were added into the wells of a 96-well plate, followed by incubation for 10 min at 37°C. Then, 50 μl of p-NPG (1 mM) was added, and the plate was further incubated for 30 min at 37°C. Finally, the absorbance of each well was recorded at 405 nm using a microplate reader. […] The inhibition of the test compound on α-glucosidase was calculated as follows: inhibition ratio (%) = [(A− B)/A] × 100, where A is the absorbance of blank and B is the absorbance of the test compound. Each concentration was experimented four times in parallel. Half inhibitory concentration (IC50) was obtained from the fitting curve of inhibition ratio vs. test compound with different concentrations.

[2] = molecular target: T1, α-glucosidase from Saccharomyces cerevisiae (EC 3.2.1.20); assay: Kinetics mechanism analysis (enzyme activity vs enzyme concentration; Lineweaver–Burk plots); type: biochemical; conditions: for Inhibition mechanism (inhibition type): Lineweaver–Burk plot analysis; for Ki: inhibition constant from slope vs inhibitor concentration (free enzyme); for K IS: inhibition constant from vertical intercept vs inhibitor concentration (enzyme–substrate complex); for Reversibility of inhibition: plots of enzyme activity vs enzyme concentration
Procedure: In order to obtain the inhibition kinetics type of compounds 3d, 3f, and 3i, the Lineweaver–Burk plot analysis method was carried out with different concentrations of test compounds and substrates.
Compounds 3d, 3f, and 3i with much better α-glucosidase inhibitory activity were selected for kinetic analysis. The experiments were performed to investigate the kinetics mechanism of compounds 3d, 3f, and 3i by the previously reported method ([Xu et al., 2019]). To determine the inhibition mechanism, the final concentrations for 3d were 0, 40, 50, 60 μM, for 3f were 0, 40, 50, 60 μM, and for 3i were 0, 30, 40, 50 μM, the final substrate p-NPG concentration was 0.25 mM, and the final concentrations for α-glucosidase were 3.75 × 10^–2, 5.00 × 10^–2, 6.25 × 10^–2, and 7.50 × 10^–2 U/ml. Then, the inhibition rates were measured by the aforementioned method.
To analyze the inhibition type, the final concentrations for 3d were 0, 40, 50, and 60 μM, for 3f were 0, 40, 50, and 60 μM, and for 3i were 0, 30, 40, and 50 μM, the final α-glucosidase concentration was 5.00 × 10^–2 U/ml, and final concentrations for substrate p-NPG concentration were 0.25, 0.50, 0.75, and 1.00 mM. The inhibition rates were obtained by the aforementioned method. The inhibition type on α-glucosidase was analyzed by using Lineweaver–Burk plots of the inverse of velocities (1/v) vs. the inverse of substrate concentration 1/[S]. The K I and K IS were obtained from the slope and the vertical intercept vs. the inhibitor concentration, respectively.
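Throughout, for IC50 (μM): Absorbance-based enzyme read-out, with each concentration tested in four parallel replicates.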
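Throughout, for IC50: Absorbance-based enzyme read-out, with each concentration tested in four parallel replicates.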
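Throughout, for Inhibition rate at a concentration of 100 μM (%): Absorbance-based enzyme read-out, with each concentration tested in four parallel replicates.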
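Throughout, for Inhibitory activity, folds higher than acarbose: Absorbance-based enzyme read-out, with each concentration tested in four parallel replicates.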

Compound `O=C1Nc2ccc(F)cc2/C1=C/c1ccccn1` [Compound 3v, (Z)-5-Fluoro-3-(Pyridin-2-ylmethylene) Indolin-2-One] has a melting point of 248.5 to 251.2 °C, an IC50 ([1]; IC50 (μM)) of over 100 µM and an inhibition at 100 µM [1] of 3.99 ± 1.28%.

In the case of `O=C1Nc2ccc(F)cc2/C1=C/c1ccccc1Br` [Compound 3g, (Z)-3-(2-Bromobenzylidene)-5-Fluoroindolin-2-One], the melting point is reported as 194.9 to 197.1 °C, the “Inhibition rate at a concentration of 100 μM (%)” value (“Inhibition rate … (%)” below) [1] is reported as 53.71 ± 0.47% and the IC50 ([1]; IC50 (μM)) is reported as 95.68 ± 0.28 µM. It also gave an inhibition at 100 µM [1] of about 50%.

For `O=C1Nc2ccc(F)cc2/C1=C/c1ccc(Cl)cc1` [Compound 3f, (Z)-3-(4-Chlorobenzylidene)-5-Fluoroindolin-2-One], the melting point was 200.6 to 202.5 °C, the “Inhibition rate … (%)” value [1] was 90.52 ± 0.27% and the IC50 ([1]; IC50 (μM)) was 35.8 ± 0.98 µM. For the same compound, the “Inhibitory activity, folds higher than acarbose” value [1] was 10 ∼ 15 folds, the inhibition at 100 µM [1] was about 90% and the “Inhibition mechanism (inhibition type)” value [2] was “Mixed type”. For the same compound, the Ki [2] was 33.8 µM, the “K IS” value [2] was 58.31 µM and the Reversibility of inhibition [2] was “reversible”.

Work on `O=C1Nc2ccc(F)cc2/C1=C/c1ccccc1C(F)(F)F` [Compound 3m, (Z)-5-Fluoro-3-[2-(Trifluoromethyl) Benzylidene) Indolin-2-One] yielded a melting point of 235.2 to 236.4 °C, an IC50 ([1]; read-out: IC50) of over 100 µM and an inhibition at 100 µM [1] of 8.43 ± 1.14%.

In the case of `O=C1Nc2ccc(F)cc2/C1=C/c1ccc(Br)cc1` [Compound 3i, (Z)-3-(4-Bromobenzylidene)-5-Fluoroindolin-2-One], the melting point is reported as 249.3 to 251.6 °C, the “Inhibition rate … (%)” value [1] is reported as 92.86 ± 0.32% and the IC50 ([1]; IC50 (μM)) is reported as 56.87 ± 0.42 µM. The “Inhibitory activity, folds higher than acarbose” value [1] was 10 ∼ 15 folds, the inhibition at 100 µM [1] was about 90% and the “Inhibition mechanism (inhibition type)” value [2] was “Mixed type”. For the same compound, the Ki [2] was 22.7 µM, the “K IS” value [2] was 24.74 µM and the Reversibility of inhibition [2] was “reversible”.

Compound `O=C1Nc2ccc(F)cc2/C1=C/c1cccs1` [Compound 3t, (Z)-5-Fluoro-3-(Thiophen-2-ylmethylene) Indolin-2-One] has an IC50 ([1]; IC50 (μM)) of over 100 µM and an inhibition at 100 µM [1] of 5.67 ± 1.11%.

With “(Z)-3-(3,4-Difluorobenzylidene)-5-Fluoroindolin-2-One [Compound 3p]” the “Inhibition rate … (%)” value [1] was 55.89 ± 1.71% and the IC50 ([1]; read-out: IC50) was 92.62 ± 0.45 µM.

In the case of `CSc1ccc(/C=C2\C(=O)Nc3ccc(F)cc32)cc1` [Compound 3r, (Z)-5-Fluoro-3-[4-(Methylthio) Benzylidene] Indolin-2-One], the melting point is reported as 246.1 to 247.1 °C, the “Inhibition rate … (%)” value [1] is reported as 60.8 ± 1.27% and the IC50 ([1]; IC50 (μM)) is reported as 90.6 ± 1.87 µM. For the same compound, the inhibition at 100 µM [1] was about 50%.

`COc1ccccc1/C=C1\C(=O)Nc2ccc(F)cc21` [Compound 3j, (Z)-5-Fluoro-3-(2-Methoxybenzylidene) Indolin-2-One] showed a melting point of 227.1 to 227.8 °C, an IC50 ([1]; IC50 (μM)) of over 100 µM and an inhibition at 100 µM [1] of 19.2 ± 1.21%.

`O=C1Nc2ccc(F)cc2/C1=C/c1ccccc1F` [Compound 3a, (Z)-5-Fluoro-3-(2-Fluorobenzylidene) Indolin-2-One] showed a melting point of 228.3 to 230.2 °C, an IC50 ([1]; IC50 (μM)) of over 100 µM and an inhibition at 100 µM [1] of 7.29 ± 0.16%.

With `O=C1Nc2ccc(F)cc2/C1=C/c1ccc(F)cc1` [Compound 3c, (Z)-5-Fluoro-3-(4-Fluorobenzylidene) Indolin-2-One] the melting point was 217 to 219.6 °C, the IC50 ([1]; IC50 (μM)) was over 100 µM and the inhibition at 100 µM [1] was 9.55 ± 0.13%.

For `O=C1Nc2ccc(F)cc2/C1=C/c1ccco1` [Compound 3s, (Z)-5-Fluoro-3-(Furan-2-ylmethylene) Indolin-2-One], the melting point was 237.9 to 238.8 °C, the IC50 ([1]; IC50 (μM)) was over 100 µM and the inhibition at 100 µM [1] was 4.49 ± 1.88%.

`COc1cccc(/C=C2\C(=O)Nc3ccc(F)cc32)c1` [Compound 3k, (Z)-5-Fluoro-3-(3-Methoxybenzylidene) Indolin-2-One] gave a melting point of 200.1 to 202.1 °C, an IC50 ([1]; IC50 (μM)) of over 100 µM and an inhibition at 100 µM [1] of 27.2 ± 1.47%.

Work on `O=C1Nc2ccc(F)cc2/C1=C/c1cccc(Cl)c1` [Compound 3e, (Z)-3-(3-Chlorobenzylidene)-5-Fluoroindolin-2-One] yielded a melting point of 237.4 to 238.9 °C, an IC50 ([1]; IC50 (μM)) of over 100 µM and an inhibition at 100 µM [1] of 21.6 ± 0.78%.

In the case of `O=C1Cc2cc(F)ccc2N1` [5-Fluoro-2-oxindole, 5-fluoro-2-oxindole], the IC50 ([1]; read-out: IC50) is reported as 7510 µM.

For `O=C1Nc2ccc(F)cc2/C1=C/c1ccccc1Cl` [Compound 3d, (Z)-3-(2-Chlorobenzylidene)-5-Fluoroindolin-2-One], the melting point was 219.7 to 221.9 °C, the “Inhibition rate … (%)” value [1] was 89.19 ± 0.14% and the IC50 ([1]; IC50 (μM)) was 49.9 ± 1.16 µM. For the same compound, the “Inhibitory activity, folds higher than acarbose” value [1] was 10 ∼ 15 folds, the inhibition at 100 µM [1] was about 90% and the “Inhibition mechanism (inhibition type)” value [2] was “Mixed type”. The Ki [2] was 15 µM, the “K IS” value [2] was 453.85 µM and the Reversibility of inhibition [2] was “reversible”.

Compound `O=C1Nc2ccc(F)cc2/C1=C/c1ccc[nH]1` [Compound 3u, (Z)-3-[(1H-Pyrrol-2-yl)methylene]-5-Fluoroindolin-2-One] has an IC50 ([1]; IC50 (μM)) of over 100 µM and an inhibition at 100 µM [1] of 3.77 ± 1.35%.

In the case of `O=C1Nc2ccc(F)cc2/C1=C/c1ccccc1` [Compound 3q, (Z)-3-Benzylidene-5-Fluoroindolin-2-One], the IC50 ([1]; IC50 (μM)) is reported as over 100 µM and the inhibition at 100 µM [1] is reported as 10 ± 1.75%.

With `O=C1Nc2ccc(F)cc2/C1=C/c1cccc(C(F)(F)F)c1` [Compound 3n, (Z)-5-Fluoro-3-[3-(Trifluoromethyl) Benzylidene] Indolin-2-One] the melting point was 199.7 to 200.5 °C, the “Inhibition rate … (%)” value [1] was 52.79 ± 1.68% and the IC50 ([1]; IC50 (μM)) was 96.78 ± 0.72 µM. It also gave an inhibition at 100 µM [1] of about 50%.

In the case of `O=C1Nc2ccc(F)cc2/C1=C/c1cccc(Br)c1` [Compound 3h, (Z)-3-(3-Bromobenzylidene)-5-Fluoroindolin-2-One], the melting point is reported as 222.6 to 223.8 °C, the IC50 ([1]; IC50 (μM)) is reported as over 100 µM and the inhibition at 100 µM [1] is reported as 31.61 ± 0.21%.

`O=C1Nc2ccc(F)cc2/C1=C/c1cccc(F)c1` [Compound 3b, (Z)-5-Fluoro-3-(3-Fluorobenzylidene) Indolin-2-One] showed a melting point of 191.4 to 192.2 °C, an IC50 ([1]; IC50 (μM)) of over 100 µM and an inhibition at 100 µM [1] of 5.19 ± 0.79%.

`COc1ccc(/C=C2\C(=O)Nc3ccc(F)cc32)cc1` [Compound 3l, (Z)-5-Fluoro-3-(4-Methoxybenzylidene) Indolin-2-One] showed a melting point of 358.8 to 359.9 °C, an IC50 ([1]; IC50 (μM)) of over 100 µM and an inhibition at 100 µM [1] of 15.7 ± 0.71%.

In the case of `O=C1Nc2ccc(F)cc2/C1=C/c1ccc(F)cc1F` [Compound 3o, (Z)-3-(2,4-Difluorobenzylidene)-5-Fluoroindolin-2-One], the melting point is reported as 221.1 to 224.3 °C, the IC50 ([1]; IC50 (μM)) is reported as over 100 µM and the inhibition at 100 µM [1] is reported as 18.8 ± 1.15%.
